One may read the Kd as the equilibrium constant for the complex coming apart.

Consider six compounds from BindingDB's records for doi:10.1074/jbc.M113.519421 (University of Michigan, 2014).

For this test, the target named is T1, Serine/threonine-protein phosphatase 5 (Homo sapiens, UniProt P53041).
T1 sequence (P53041 whole entry): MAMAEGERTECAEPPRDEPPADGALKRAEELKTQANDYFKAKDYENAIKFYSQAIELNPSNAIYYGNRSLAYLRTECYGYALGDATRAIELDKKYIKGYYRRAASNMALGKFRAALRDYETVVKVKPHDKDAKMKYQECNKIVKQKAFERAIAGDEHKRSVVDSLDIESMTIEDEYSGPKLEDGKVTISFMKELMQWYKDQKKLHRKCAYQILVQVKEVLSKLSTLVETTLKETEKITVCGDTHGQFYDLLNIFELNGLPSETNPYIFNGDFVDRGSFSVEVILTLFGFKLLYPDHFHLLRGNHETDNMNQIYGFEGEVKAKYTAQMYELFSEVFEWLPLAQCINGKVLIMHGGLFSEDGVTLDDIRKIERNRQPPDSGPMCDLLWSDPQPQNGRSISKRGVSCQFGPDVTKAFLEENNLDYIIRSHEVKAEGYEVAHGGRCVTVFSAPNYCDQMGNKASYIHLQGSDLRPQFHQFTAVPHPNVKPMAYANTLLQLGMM
In words: Fluorescence Polarization Assay. The following applies: pH 7.4; 25 °C. Here is the method:
All fluorescence polarization experiments were conducted in 384-well, black, low volume, round-bottomed plates (Corning) using a BioTeck Synergy 2 plate reader (Winooski, VT). For binding experiments, to each well was added increasing amounts of protein and the 5-carboxyfluorescein-labeled Hsp70/90 C-terminal probe/tracer (20 nM). […] The plate was allowed to incubate at room temperature for 5 min toreach equilibrium. […] An equilibrium binding isotherm was constructed by plotting the fluorescence polarization reading as a function of the protein concentration at a fixed concentration of tracer (20 nM).
For orientation: Polarisation of emitted light reports the rotation of a fluorescent probe.
Consider H-DVEEM-OH [DVEEM], for which the Kd was over 10000 nM.
The result for `CC[C@H](C)[C@H](N)C(=O)N[C@@H](CCC(=O)O)C(=O)N[C@@H](CCC(=O)O)C(=O)N[C@H](C(=O)N[C@@H](CC(=O)O)C(=O)O)C(C)C` [IEEVD] reads 426 nM; that for H-DDTSRIEEVD-OH, 420 nM; that for `CC[C@H](C)[C@H](NC(=O)[C@@H](NC(=O)[C@@H]1CCCN1C(=O)CNC(=O)[C@H](CO)NC(=O)[C@@H](N)CO)[C@@H](C)O)C(=O)N[C@@H](CCC(=O)O)C(=O)N[C@@H](CCC(=O)O)C(=O)N[C@H](C(=O)N[C@@H](CC(=O)O)C(=O)O)C(C)C`, 1060 nM.
Under `CSCC[C@H](NC(=O)[C@H](CCCNC(=N)N)NC(=O)[C@H](CO)NC(=O)[C@H](C)NC(=O)[C@H](CC(=O)O)NC(=O)[C@@H](N)CCC(=O)O)C(=O)N[C@@H](CCC(=O)O)C(=O)N[C@@H](CCC(=O)O)C(=O)N[C@H](C(=O)N[C@@H](CC(=O)O)C(=O)O)C(C)C` stands 77 nM; under `CSCC[C@H](NC(=O)[C@@H](NC(=O)[C@@H]1CCCN1C(=O)CNC(=O)[C@H](CO)NC(=O)CN)[C@@H](C)O)C(=O)N[C@@H](CCC(=O)O)C(=O)N[C@@H](CCC(=O)O)C(=O)N[C@H](C(=O)N[C@@H](CC(=O)O)C(=O)O)C(C)C`, 133 nM.
